Laboratory results as given in ChEMBL document CHEMBL4118077, “Synthesis of thiazole linked indolyl-3-glyoxylamide derivatives as tubulin polymerization inhibitors” (Eur J Med Chem, 2017).
Active and inactive are the calls of the source. The rule behind the calls is not given here.

How the values were obtained:
DU-145 [1] = test: Antiproliferative activity against human DU145 cells after 48 hrs by MTT assay; format: functional, cell-based; conditions: DU-145, 48 h
HCT-15 = test: Antiproliferative activity against human HCT15 cells after 48 hrs by MTT assay; format: functional, cell-based; conditions: HCT-15, 48 h
A549 = test: Antiproliferative activity against human A549 cells after 48 hrs by MTT assay; format: functional, cell-based; conditions: A549, 48 h
PC-3 = test: Antiproliferative activity against human PC3 cells after 48 hrs by MTT assay; format: functional, cell-based; conditions: PC-3, 48 h
Sus scrofa = organism: Sus scrofa; test: Inhibition of porcine brain tubulin polymerization at 5 uM measured for 1 hr by fluorescence assay relative to control
DU-145 [2] = test: Induction of mitochondrial membrane potential loss in human DU145 cells after 24 hrs by JC-1 staining based flow cytometry; format: functional, cell-based
DU-145 [3] = test: Induction of morphological changes in human DU145 cells assessed as membrane blebbing after 48 hrs by acridine orange/ethidium bromide staining based fluorescence microscopic method; format: functional, cell-based
DU-145 [4] = test: Antimigratory activity against human DU145 cells assessed as inhibition of migration to scratch area at 100 nM after 24 hrs by phase contrast microscopic method relative to control; format: functional; conditions: DU-145, 24 h
DU-145 [5] = test: Cell cycle arrest in human DU145 cells assessed as accumulation at subG1 phase at 100 nM after 24 hrs by propidium iodide staining based flow cytometry (reference value: 0.43%); format: functional
DU-145 [6] = test: Antimigratory activity against human DU145 cells assessed as inhibition of migration to scratch area at 400 nM after 24 hrs by phase contrast microscopic method relative to control; format: functional; conditions: DU-145, 24 h
DU-145 [7] = test: Cell cycle arrest in human DU145 cells assessed as accumulation at subG1 phase at 200 nM after 24 hrs by propidium iodide staining based flow cytometry (reference value: 0.43%); format: functional
DU-145 [8] = test: Cell cycle arrest in human DU145 cells assessed as accumulation at G0/G1 phase at 400 nM after 24 hrs by propidium iodide staining based flow cytometry (reference value: 63.77%); format: functional
DU-145 [9] = test: Cell cycle arrest in human DU145 cells assessed as accumulation at S phase at 200 nM after 24 hrs by propidium iodide staining based flow cytometry (reference value: 14.8%); format: functional
DU-145 [10] = test: Induction of apoptosis in human DU145 cells assessed as necrotic cells at 400 nM after 24 hrs by Annexin V-FITC/propidium iodide staining based flow cytometry (reference value: 1.82%); format: functional
DU-145 [11] = test: Induction of morphological changes in human DU145 cells assessed as cell shrinkage after 48 hrs by acridine orange/ethidium bromide staining based fluorescence microscopic method; format: functional
DU-145 [12] = test: Induction of apoptosis in human DU145 cells assessed as live cells at 400 nM after 24 hrs by Annexin V-FITC/propidium iodide staining based flow cytometry (reference value: 85.71%); format: functional
DU-145 [13] = test: Antimigratory activity against human DU145 cells assessed as inhibition of migration to scratch area at 200 nM after 24 hrs by phase contrast microscopic method relative to control; format: functional; conditions: DU-145, 24 h
DU-145 [14] = test: Cell cycle arrest in human DU145 cells assessed as accumulation at G2/M phase after 24 hrs by propidium iodide staining based flow cytometry; format: functional
DU-145 [15] = test: Induction of mitochondrial membrane potential loss in human DU145 cells assessed as intact membrane cell population at 200 nM after 24 hrs by JC-1 staining based flow cytometry (reference value: 77.24%); format: functional
DU-145 [16] = test: Induction of apoptosis in human DU145 cells assessed as early apoptotic cells at 400 nM after 24 hrs by Annexin V-FITC/propidium iodide staining based flow cytometry (reference value: 5.92%); format: functional
DU-145 [17] = test: Cell cycle arrest in human DU145 cells assessed as accumulation at G2/M phase at 200 nM after 24 hrs by propidium iodide staining based flow cytometry (reference value: 25.88%); format: functional
DU-145 [18] = test: Antimigratory activity against human DU145 cells assessed as inhibition of migration to scratch area after 24 hrs by phase contrast microscopic method; format: functional, cell-based
DU-145 [19] = test: Cell cycle arrest in human DU145 cells assessed as accumulation at G2/M phase at 100 nM after 24 hrs by propidium iodide staining based flow cytometry (reference value: 25.88%); format: functional
DU-145 [20] = test: Induction of morphological changes in human DU145 cells assessed as nuclear fragmentation at 100 to 200 nM after 48 hrs by DAPI staining based fluorescence microscopic method; format: functional, cell-based
DU-145 [21] = test: Induction of intracellular mitochondrial superoxide generation in human DU145 cells after 48 hrs by MitoSOX staining based fluorescence microscopic method; format: functional, cell-based
DU-145 [22] = test: Induction of mitochondrial membrane potential loss in human DU145 cells assessed as depolarized cell population at 400 nM after 24 hrs by JC-1 staining based flow cytometry (reference value: 22.28%); format: functional
DU-145 [23] = test: Induction of apoptosis in human DU145 cells assessed as live cells at 200 nM after 24 hrs by Annexin V-FITC/propidium iodide staining based flow cytometry (reference value: 85.71%); format: functional
DU-145 [24] = test: Induction of morphological changes in human DU145 cells assessed as apoptotic body formation after 48 hrs by acridine orange/ethidium bromide staining based fluorescence microscopic method; format: functional, cell-based
DU-145 [25] = test: Cell cycle arrest in human DU145 cells assessed as accumulation at S phase at 400 nM after 24 hrs by propidium iodide staining based flow cytometry (reference value: 14.8%); format: functional
DU-145 [26] = test: Induction of apoptosis in human DU145 cells assessed as late apoptotic cells at 400 nM after 24 hrs by Annexin V-FITC/propidium iodide staining based flow cytometry (reference value: 6.55%); format: functional
DU-145 [27] = test: Induction of morphological changes in human DU145 cells assessed as nuclear condensation at 100 to 200 nM after 48 hrs by DAPI staining based fluorescence microscopic method; format: functional, cell-based
DU-145 [28] = test: Induction of mitochondrial membrane potential loss in human DU145 cells assessed as depolarized cell population at 200 nM after 24 hrs by JC-1 staining based flow cytometry (reference value: 22.28%); format: functional
DU-145 [29] = test: Cell cycle arrest in human DU145 cells assessed as accumulation at G2/M phase at 400 nM after 24 hrs by propidium iodide staining based flow cytometry (reference value: 25.88%); format: functional
DU-145 [30] = test: Induction of apoptosis in human DU145 cells assessed as late apoptotic cells at 200 nM after 24 hrs by Annexin V-FITC/propidium iodide staining based flow cytometry (reference value: 6.55%); format: functional
DU-145 [31] = test: Cell cycle arrest in human DU145 cells assessed as accumulation at G0/G1 phase at 200 nM after 24 hrs by propidium iodide staining based flow cytometry (reference value: 63.77%); format: functional
RWPE-1 = test: Cytotoxicity against human RWPE1 cells assessed as reduction in cell viability after 48 hrs by MTT assay; format: cell-based; conditions: RWPE-1, 48 h
DU-145 [32] = test: Induction of mitochondrial membrane potential loss in human DU145 cells assessed as intact membrane cell population at 400 nM after 24 hrs by JC-1 staining based flow cytometry (reference value: 77.24%); format: functional
DU-145 [33] = test: Induction of apoptosis in human DU145 cells after 24 hrs by Annexin V-FITC/propidium iodide staining based flow cytometry; format: functional, cell-based
DU-145 [34] = test: Induction of apoptosis in human DU145 cells assessed as early apoptotic cells at 200 nM after 24 hrs by Annexin V-FITC/propidium iodide staining based flow cytometry (reference value: 5.92%); format: functional
DU-145 [35] = test: Induction of apoptosis in human DU145 cells assessed as necrotic cells at 200 nM after 24 hrs by Annexin V-FITC/propidium iodide staining based flow cytometry (reference value: 1.82%); format: functional
DU-145 [36] = test: Cell cycle arrest in human DU145 cells assessed as accumulation at G0/G1 phase at 100 nM after 24 hrs by propidium iodide staining based flow cytometry (reference value: 63.77%); format: functional
DU-145 [37] = test: Cell cycle arrest in human DU145 cells assessed as accumulation at S phase at 100 nM after 24 hrs by propidium iodide staining based flow cytometry (reference value: 14.8%); format: functional
DU-145 [38] = test: Cell cycle arrest in human DU145 cells assessed as accumulation at subG1 phase at 400 nM after 24 hrs by propidium iodide staining based flow cytometry (reference value: 0.43%); format: functional

## O=C(Cn1cc(C(=O)C(=O)N2CCCCC2)c2ccccc21)Nc1nc(-c2ccccc2)cs1
DU-145 [1]
  IC50: 25.4 µM
HCT-15
  IC50: > 50 µM
A549
  IC50: > 50 µM
PC-3
  IC50: > 50 µM

## COc1ccc2sc(NC(=O)Cn3cc(C(=O)C(=O)N4CCCCC4)c4ccccc43)nc2c1
Sus scrofa
  inhibition: 38.5%
DU-145 [1]
  IC50: 6.4 µM
HCT-15
  IC50: > 50 µM
A549
  IC50: > 50 µM
PC-3
  IC50: 4.2 µM

## COc1cc([C@@H]2c3cc4c(cc3[C@H](O)[C@H]3COC(=O)[C@H]23)OCO4)cc(OC)c1OC
Sus scrofa
  inhibition: 78%

## COc1ccc2sc(NC(=O)Cn3cc(C(=O)C(=O)Nc4ccccc4)c4ccccc43)nc2c1
DU-145 [2]
  Activity: Dose-dependent effect
DU-145 [3]
  Activity: Dose-dependent effect
DU-145 [4]
  inhibition at 0.1 µM: 74.8%
Sus scrofa
  inhibition: 68.5%
DU-145 [5]
  Activity: 17.37%
DU-145 [6]
  inhibition at 0.4 µM: 34.8%
DU-145 [7]
  Activity: 5.88%
DU-145 [8]
  Activity: 16.32%
DU-145 [9]
  Activity: 8.26%
DU-145 [10]
  Activity: 4.06%
DU-145 [11]
  Activity: Dose-dependent effect
DU-145 [12]
  Activity: 45.47%
DU-145 [13]
  inhibition at 0.2 µM: 44%
DU-145 [14]
  Activity: Dose-dependent effect
DU-145 [1]
  IC50: 0.093 µM
DU-145 [15]
  Activity: 42.39%
DU-145 [16]
  Activity: 16.84%
DU-145 [17]
  Activity: 34.07%
DU-145 [18]
  inhibition: Dose-dependent effect
DU-145 [19]
  Activity: 30.15%
DU-145 [20]
  Activity: Active
DU-145 [21]
  Activity: Dose-dependent effect
DU-145 [22]
  Activity: 64.65%
DU-145 [23]
  Activity: 84.72%
DU-145 [24]
  Activity: Dose-dependent effect
DU-145 [25]
  Activity: 5.51%
DU-145 [26]
  Activity: 33.63%
DU-145 [27]
  Activity: Active
DU-145 [28]
  Activity: 57.05%
DU-145 [29]
  Activity: 50.9%
HCT-15
  IC50: 0.18 µM
DU-145 [30]
  Activity: 5.81%
DU-145 [31]
  Activity: 51.89%
RWPE-1
  IC50: 0.71 µM
DU-145 [32]
  Activity: 34.21%
DU-145 [33]
  Activity: Dose-dependent effect
DU-145 [34]
  Activity: 5.89%
DU-145 [35]
  Activity: 3.58%
DU-145 [36]
  Activity: 47.69%
DU-145 [37]
  Activity: 5.8%
DU-145 [38]
  Activity: 26.89%
A549
  IC50: 2.1 µM
PC-3
  IC50: 0.361 µM

## CCOC(=O)c1nc(NC(=O)Cn2cc(C(=O)C(=O)Nc3ccccc3)c3ccccc32)sc1C
Sus scrofa
  inhibition: 58.4%
DU-145 [1]
  IC50: 0.14 µM
HCT-15
  IC50: 2.5 µM
A549
  IC50: 6.3 µM
PC-3
  IC50: 6.1 µM

## O=C(CCn1cc(C(=O)C(=O)N2CCCCC2)c2ccccc21)Nc1nc(-c2ccccc2)cs1
DU-145 [1]
  IC50: > 50 µM
HCT-15
  IC50: > 50 µM
A549
  IC50: > 50 µM
PC-3
  IC50: > 50 µM

## O=C(Cn1cc(C(=O)C(=O)N2CCCCC2)c2ccccc21)Nc1nccs1
DU-145 [1]
  IC50: > 50 µM
HCT-15
  IC50: > 50 µM
A549
  IC50: > 50 µM
PC-3
  IC50: > 50 µM

## COc1ccc2sc(NC(=O)CCn3cc(C(=O)C(=O)N4CCCCC4)c4ccccc43)nc2c1
DU-145 [1]
  IC50: 12.3 µM
HCT-15
  IC50: > 50 µM
A549
  IC50: > 50 µM
PC-3
  IC50: 15.3 µM

## CCOC(=O)c1nc(NC(=O)Cn2cc(C(=O)C(=O)N3CCCCC3)c3ccccc32)sc1C
DU-145 [1]
  IC50: 3.21 µM
A549
  IC50: > 50 µM
PC-3
  IC50: 8.2 µM

## CCOC(=O)c1nc(NC(=O)CCn2cc(C(=O)C(=O)N3CCCCC3)c3ccccc32)sc1C
Sus scrofa
  inhibition: 12.2%
DU-145 [1]
  IC50: > 50 µM
HCT-15
  IC50: > 50 µM
A549
  IC50: > 50 µM
PC-3
  IC50: > 50 µM
